Key:
[1] = system: peptidase activity in human plasma sample; assay: Enzyme activity assay in microdevice with human plasma, peptidase probes; format: biochemical; conditions: 50 μM probe
Method: (§1) • 1. GP-sHMRG as a fluorescent probe for detecting peptidase activity was diluted with an assay buffer to 100 μM. The composition of the assay buffer is 100 mM HEPES-NaOH (pH 7.4), 1 mM MgCl2, 1 mM CaCl2, 1 mM DTT, 3 mM Triton X-100. • 2. Next, a human plasma sample was diluted by 2,500 times with the above assay buffer, and mixed in an equal amount with the diluted solution of the probe. At this time, the final concentrations of both are 50 μM for GP-sHMRG and 5,000 fold dilution for the human plasma sample. • 3. The mixed solution of both was then added to a microdevice, followed by the addition of sealing oil to enclose the solution in each well. • 4. The microdevice in which the solution was enclosed was incubated at 25° C. for 2 hours, and then the fluorescence intensity of each well was measured with a fluorescence microscope.
as §1, with “1. Ac-Ala-sHMRG” for “1. GP-sHMRG”, “by 250” for “by 2,500”, “for Ac-Ala-sHMRG” for “for GP-sHMRG”, “and 500” for “and 5,000”, “at 37°” for “at 25°”, “for 4” for “for 2”
• 1. Ac-GP-sSiR as a fluorescent probe for detecting peptidase activity was diluted with an assay buffer to 100 μM. The composition of the assay buffer is 100 mM HEPES-NaOH (pH 7.4), 1 mM MgCl2, 1 mM CaCl2, 1 mM DTT, 3 mM Triton X-100. • 2. […] The microdevice in which the solution was enclosed was incubated at 37° C. for 2 hours, and then the fluorescence intensity of each well was measured with a fluorescence microscope.

[2] = system: aminopeptidase activity in human plasma sample; assay: Enzyme activity assay in microdevice with human plasma, aminopeptidase probes; format: biochemical; conditions: 50 μM probe
Method: • 1. Ala-sHMRG as a fluorescent probe for detecting aminopeptidase activity was diluted with an assay buffer to 100 μM. The composition of the assay buffer is 100 mM HEPES-NaOH (pH 7.4), 1 mM MgCl2, 0.1% BSA, 1 mM DTT, 1 mM Triton X-100, • 2. Next, a human plasma sample was diluted by 500 times with the above assay buffer, and mixed in an equal amount with the diluted solution of the probe. At this time, the final concentrations of both are 50 μM for Ala-sHMRG and 1,000 fold dilution for the human plasma sample. • 3. The mixed solution of both was then added to a microdevice, followed by the addition of sealing oil to enclose the solution in each well. • 4. The microdevice in which the solution was enclosed was incubated at 37° C. for 4 hours, and then the fluorescence intensity of each well was measured with a fluorescence microscope.
as §1, with “1. Leu-sHMRG” for “1. GP-sHMRG”, “detecting aminopeptidase” for “detecting peptidase”, “MgCl2,” for “MgCl2, 1 mM CaCl2,”, “for Leu-sHMRG” for “for GP-sHMRG”, “at 37°” for “at 25°”, “for 4” for “for 2”
(§2) • 5. Met-sHMRG as a fluorescent probe for detecting aminopeptidase activity was diluted with an assay buffer to 100 μM. The composition of the assay buffer is 100 mM HEPES-NaOH (pH 7.4), 1 mM MgCl2, 1 mM CaCl2, 1 mM DTT, 3 mM Triton X-100. • 6. Next, a human plasma sample was diluted by 500 times with the above assay buffer, and mixed in an equal amount with the diluted solution of the probe. At this time, the final concentrations of both are 50 μM for Met-sHMRG and 1,000 fold dilution for the human plasma sample. • 7. The mixed solution of both was then added to a microdevice, followed by the addition of sealing oil to enclose the solution in each well. • 8. The microdevice in which the solution was enclosed was incubated at 37° C. for 2 hours, and then the fluorescence intensity of each well was measured with a fluorescence microscope.
as §2, with “• 9. Tyr-sHMRG” for “• 5. Met-sHMRG”, “• 10.” for “• 6.”, “for Tyr-sHMRG” for “for Met-sHMRG”, “• 11.” for “• 7.”, “• 12.” for “• 8.”, “for 4” for “for 2”
• 1. Lys-sHMRG as a fluorescent probe for detecting aminopeptidase activity was diluted with an assay buffer to 100 μM. The composition of the assay buffer is 100 mM HEPES-NaOH (pH 7.4), 1 mM MgCl2, 1 mM CaCl2, 1 mM DTT, 3 mM Triton X-100. • 2. Next, a human plasma sample was diluted by 10,000 times with the above assay buffer, and mixed in an equal amount with the diluted solution of the probe. At this time, the final concentrations of both are 50 μM for Lys-sHMRG and 20,000 fold dilution for the human plasma sample. • 3. […]

[3] = human plasma 1,000 fold dilution, 37° C. for 2 hours
[4] = human plasma 1,000 fold dilution, 37° C. for 4 hours
[5] = human plasma 20,000 fold dilution, 37° C. for 2 hours

Structure (SMILES): CC(=O)N[C@@H](C)C(=O)Nc1ccc2c(c1)Oc1cc(N)ccc1C21OCc2cc(S(=O)(=O)O)ccc21 (stereo partly shown) [Ac-Ala-sHMRG]
- fluorescence intensity of wells in which the reacting enzyme was enclosed ([1]; human plasma 500 fold dilution, 37° C. for 4 hours): increase in fluorescence intensity was observed

Structure (SMILES): CC(C)C[C@H](N)C(=O)Nc1ccc2c(c1)Oc1cc(N)ccc1C21OCc2cc(S(=O)(=O)O)ccc21 (stereo partly shown) [Leu-sHMRG]
- fluorescence intensity of wells in which the reacting enzyme was enclosed ([2]; human plasma 5,000 fold dilution, 37° C. for 4 hours): increase in fluorescence intensity was observed

Structure (SMILES): Nc1ccc2c(c1)Oc1cc(NC(=O)CC[C@@H](N)C(=O)O)ccc1C21OCc2cc(S(=O)(=O)O)ccc21 (stereo partly shown) [gGlu-sHMRG]
- fluorescence intensity of wells in which the reacting enzyme was enclosed [2, 3]: increase in fluorescence intensity was observed

Structure (SMILES): Cc1ccc(S(=O)(=O)O)cc1C1=C2C=CC(=N)C=C2[Si](C)(C)c2cc(NC(=O)[C@@H](N)CCCNC(=N)N)ccc21 [Arg-sSiR]
- fluorescence intensity of wells in which the reacting enzyme was enclosed [2, 4]: increase in fluorescence intensity was observed

Structure (SMILES): Nc1ccc2c(c1)Oc1cc(NC(=O)[C@@H](N)Cc3ccc(O)cc3)ccc1C21OCc2cc(S(=O)(=O)O)ccc21 (stereo partly shown) [Tyr-sHMRG]
- fluorescence intensity of wells in which the reacting enzyme was enclosed [2, 4]: increase in fluorescence intensity was observed

Structure (SMILES): C[C@H](N)C(=O)Nc1ccc2c(c1)Oc1cc(N)ccc1C21OCc2cc(S(=O)(=O)O)ccc21 (stereo partly shown) [Ala-sHMRG]
- fluorescence intensity of wells in which the reacting enzyme was enclosed [2, 4]: increase in fluorescence intensity was observed

Structure (SMILES): NCCCC[C@H](N)C(=O)Nc1ccc2c(c1)Oc1cc(N)ccc1C21OCc2cc(S(=O)(=O)O)ccc21 (stereo partly shown) [Lys-sHMRG]
- fluorescence intensity of wells in which the reacting enzyme was enclosed [2, 5]: increase in fluorescence intensity was observed

Structure (SMILES): Cc1ccc(S(=O)(=O)O)cc1C1=C2C=CC(=N)C=C2[Si](C)(C)c2cc(NC(=O)[C@@H](N)Cc3c[nH]c4ccccc34)ccc21 [Trp-sSiR]
- fluorescence intensity of wells in which the reacting enzyme was enclosed [2, 4]: increase in fluorescence intensity was observed

Structure (SMILES): CC(=O)NCC(=O)N1CCCC1C(=O)Nc1ccc2c(c1)[Si](C)(C)C1=CC(=N)C=CC1=C2c1cc(S(=O)(=O)O)ccc1C (stereo not shown) [Ac-GP-sSiR]
- fluorescence intensity of wells in which the reacting enzyme was enclosed [1, 5]: increase in fluorescence intensity was observed

Structure (SMILES): CSCC[C@H](N)C(=O)Nc1ccc2c(c1)Oc1cc(N)ccc1C21OCc2cc(S(=O)(=O)O)ccc21 (stereo partly shown) [Met-sHMRG]
- fluorescence intensity of wells in which the reacting enzyme was enclosed [2, 3]: increase in fluorescence intensity was observed

— patent US20250313879A1, “Fluorescent Probe for Detecting Peptide Bond Hydrolase” (The University of Tokyo, priority 2022, published 2025)
